In the supplement of paper PMC10011410:

What was measured:
U-2 OS [1] = experiment: cell painting activity score (Mahalanobis distance from DMSO wells); higher = stronger morphological phenotype; conditions: 24 h
Description: (§1)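 Cell painting in U-2 OS cells (384-well, about 1,500 cells per well), compound exposure 24 h, usually six 2-fold concentrations from 20 to 0.625 uM (some compounds higher or lower). Relative cell count is the cell number per well relative to DMSO wells. Activity score is the Mahalanobis distance of the morphological profile from DMSO control wells. Mean of four technical replicate plates.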

U-2 OS [2] = experiment: relative cell count vs DMSO (cell painting) (fraction of DMSO control); higher = more cells remaining (less cytotoxic); conditions: 24 h
Description: as §1

U-2 OS [3] = experiment: AUC of culture confluence over time (live-cell imaging) (AUC (confluence % x time)); higher = more confluent culture (less growth inhibition)
Description: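 Live-cell Incucyte imaging of U-2 OS cells in F-12K medium. Compounds were tested mostly at 5, 10 and 20 uM, and cells were imaged every 4 h for up to 60 h. Value is the area under the curve of phase-contrast confluence over time.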

SMILES: C[C@@H]1O[C@@H](O[C@H]2[C@H](O[C@H]3CC[C@@]4(C)[C@@H](CC[C@]5(C)[C@@H]4CC=C4[C@@H]6CC(C)(C)CC[C@]6(C(=O)O)CC[C@]45C)[C@]3(C)CO)OC[C@H](O[C@@H]3O[C@H](CO)[C@@H](O)[C@H](O)[C@H]3O)[C@@H]2O)[C@H](O)[C@H](O)[C@H]1O
- cell painting activity score (U-2 OS [1]; 0.625 µM): 4.55
- cell painting activity score (U-2 OS [1]; 1.25 µM): 9.15
- cell painting activity score (U-2 OS [1]; 2.5 µM): 31.1
- cell painting activity score (U-2 OS [1]; 5 µM): 31.3
- cell painting activity score (U-2 OS [1]; 10 µM): 33.6
- cell painting activity score (U-2 OS [1]; 20 µM): 35.9
- relative cell count (U-2 OS [2]; 0.625 µM): 0.916
- relative cell count (U-2 OS [2]; 1.25 µM): 0.143
- relative cell count (U-2 OS [2]; 2.5 µM): 0.0325
- relative cell count (U-2 OS [2]; 5 µM): 0.0427
- relative cell count (U-2 OS [2]; 10 µM): 0.0257
- relative cell count (U-2 OS [2]; 20 µM): 0.015
- AUC of culture confluence over time (U-2 OS [3]; 5 µM): 14.5
- AUC of culture confluence over time (U-2 OS [3]; 10 µM): 16.5
- AUC of culture confluence over time (U-2 OS [3]; 20 µM): 13

SMILES: CCN(CC)Cc1ccc2cc(COC(=O)Nc3ccc(C(=O)NO)cc3)ccc2c1.Cl
- cell painting activity score (U-2 OS [1]; 0.625 µM): 16.1
- cell painting activity score (U-2 OS [1]; 1.25 µM): 14.9
- cell painting activity score (U-2 OS [1]; 2.5 µM): 15
- cell painting activity score (U-2 OS [1]; 5 µM): 15.6
- cell painting activity score (U-2 OS [1]; 10 µM): 16
- cell painting activity score (U-2 OS [1]; 20 µM): 16.9
- relative cell count (U-2 OS [2]; 0.625 µM): 0.781
- relative cell count (U-2 OS [2]; 1.25 µM): 0.654
- relative cell count (U-2 OS [2]; 2.5 µM): 0.491
- relative cell count (U-2 OS [2]; 5 µM): 0.424
- relative cell count (U-2 OS [2]; 10 µM): 0.403
- relative cell count (U-2 OS [2]; 20 µM): 0.373
- AUC of culture confluence over time (U-2 OS [3]; 5 µM): 16.5
- AUC of culture confluence over time (U-2 OS [3]; 10 µM): 20
- AUC of culture confluence over time (U-2 OS [3]; 20 µM): 18.5

SMILES: CN(C)/N=N/c1nc[nH]c1C(N)=O
- cell painting activity score (U-2 OS [1]; 0.625 µM): 4.78
- cell painting activity score (U-2 OS [1]; 1.25 µM): 4.12
- cell painting activity score (U-2 OS [1]; 2.5 µM): 4.94
- cell painting activity score (U-2 OS [1]; 5 µM): 4.77
- cell painting activity score (U-2 OS [1]; 10 µM): 3.79
- cell painting activity score (U-2 OS [1]; 20 µM): 4.2
- relative cell count (U-2 OS [2]; 0.625 µM): 1
- relative cell count (U-2 OS [2]; 1.25 µM): 0.996
- relative cell count (U-2 OS [2]; 2.5 µM): 0.98
- relative cell count (U-2 OS [2]; 5 µM): 0.966
- relative cell count (U-2 OS [2]; 10 µM): 1.02
- relative cell count (U-2 OS [2]; 20 µM): 1.02
- AUC of culture confluence over time (U-2 OS [3]; 5 µM): 43.6
- AUC of culture confluence over time (U-2 OS [3]; 10 µM): 42.3
- AUC of culture confluence over time (U-2 OS [3]; 20 µM): 45.2

SMILES: C[C@@]1(CO)[C@H](O)CC[C@@]2(C)[C@H]1CC[C@H]1C[C@@H]3C[C@@]12CC[C@]3(O)CO
- cell painting activity score (U-2 OS [1]; 0.625 µM): 13.5
- cell painting activity score (U-2 OS [1]; 1.25 µM): 12.7
- cell painting activity score (U-2 OS [1]; 2.5 µM): 14.8
- cell painting activity score (U-2 OS [1]; 5 µM): 14.8
- cell painting activity score (U-2 OS [1]; 10 µM): 16.2
- cell painting activity score (U-2 OS [1]; 20 µM): 15.8
- relative cell count (U-2 OS [2]; 0.625 µM): 0.886
- relative cell count (U-2 OS [2]; 1.25 µM): 0.788
- relative cell count (U-2 OS [2]; 2.5 µM): 0.683
- relative cell count (U-2 OS [2]; 5 µM): 0.659
- relative cell count (U-2 OS [2]; 10 µM): 0.621
- relative cell count (U-2 OS [2]; 20 µM): 0.622
- AUC of culture confluence over time (U-2 OS [3]; 5 µM): 30.1
- AUC of culture confluence over time (U-2 OS [3]; 10 µM): 29
- AUC of culture confluence over time (U-2 OS [3]; 20 µM): 28.6

SMILES: CN1C(=O)[C@@]23C[C@]4([C@]56C[C@@]78SS[C@@](CO)(C(=O)N7[C@H]5Nc5ccccc56)N(C)C8=O)c5ccccc5N[C@@H]4N2C(=O)[C@]1(CO)SS3
- cell painting activity score (U-2 OS [1]; 0.625 µM): 16.3
- cell painting activity score (U-2 OS [1]; 1.25 µM): 21.7
- cell painting activity score (U-2 OS [1]; 2.5 µM): 17.3
- cell painting activity score (U-2 OS [1]; 5 µM): 16.4
- cell painting activity score (U-2 OS [1]; 10 µM): 7.82
- cell painting activity score (U-2 OS [1]; 20 µM): 14
- relative cell count (U-2 OS [2]; 0.625 µM): 0.176
- relative cell count (U-2 OS [2]; 1.25 µM): 0.0258
- relative cell count (U-2 OS [2]; 2.5 µM): 0.0235
- relative cell count (U-2 OS [2]; 5 µM): 0.0282
- relative cell count (U-2 OS [2]; 10 µM): 0.0283
- relative cell count (U-2 OS [2]; 20 µM): 0.0118
- AUC of culture confluence over time (U-2 OS [3]; 5 µM): 9.52
- AUC of culture confluence over time (U-2 OS [3]; 10 µM): 13.4
- AUC of culture confluence over time (U-2 OS [3]; 20 µM): 13.8

SMILES: O=C(O[C@@H]1O[C@@H]2COC(=O)c3cc(O)c(O)c(O)c3-c3c(cc(O)c(O)c3O)C(=O)O[C@H]([C@H]1O)[C@@H]2O)c1cc(O)c(O)c(O)c1
- cell painting activity score (U-2 OS [1]; 0.625 µM): 4.19
- cell painting activity score (U-2 OS [1]; 1.25 µM): 3.86
- cell painting activity score (U-2 OS [1]; 2.5 µM): 4.06
- cell painting activity score (U-2 OS [1]; 5 µM): 3.55
- cell painting activity score (U-2 OS [1]; 10 µM): 4.28
- cell painting activity score (U-2 OS [1]; 20 µM): 4.5
- relative cell count (U-2 OS [2]; 0.625 µM): 1.02
- relative cell count (U-2 OS [2]; 1.25 µM): 1.04
- relative cell count (U-2 OS [2]; 2.5 µM): 1.01
- relative cell count (U-2 OS [2]; 5 µM): 1
- relative cell count (U-2 OS [2]; 10 µM): 0.979
- relative cell count (U-2 OS [2]; 20 µM): 0.978
- AUC of culture confluence over time (U-2 OS [3]; 5 µM): 48.7
- AUC of culture confluence over time (U-2 OS [3]; 10 µM): 46.2
- AUC of culture confluence over time (U-2 OS [3]; 20 µM): 43.4

SMILES: C=C1[C@@H](C)[C@H]2[C@H](Cc3ccccc3)NC(=O)[C@]23[C@H](OC(C)=O)/C=C/[C@@](C)(O)C(=O)[C@@H](C)C/C=C/[C@H]3[C@@H]1O
- cell painting activity score (U-2 OS [1]; 0.625 µM): 14.5
- cell painting activity score (U-2 OS [1]; 1.25 µM): 15.6
- cell painting activity score (U-2 OS [1]; 2.5 µM): 16.1
- cell painting activity score (U-2 OS [1]; 5 µM): 17.4
- cell painting activity score (U-2 OS [1]; 10 µM): 18.8
- cell painting activity score (U-2 OS [1]; 20 µM): 19.2
- relative cell count (U-2 OS [2]; 0.625 µM): 0.575
- relative cell count (U-2 OS [2]; 1.25 µM): 0.517
- relative cell count (U-2 OS [2]; 2.5 µM): 0.557
- relative cell count (U-2 OS [2]; 5 µM): 0.623
- relative cell count (U-2 OS [2]; 10 µM): 0.562
- relative cell count (U-2 OS [2]; 20 µM): 0.494
- AUC of culture confluence over time (U-2 OS [3]; 5 µM): 24.3
- AUC of culture confluence over time (U-2 OS [3]; 10 µM): 26
- AUC of culture confluence over time (U-2 OS [3]; 20 µM): 27.2

SMILES: C[C@@]12C(=O)OC(=O)[C@]1(C)[C@H]1CC[C@@H]2O1
- cell painting activity score (U-2 OS [1]; 0.625 µM): 13.8
- cell painting activity score (U-2 OS [1]; 1.25 µM): 14.1
- cell painting activity score (U-2 OS [1]; 2.5 µM): 13.8
- cell painting activity score (U-2 OS [1]; 5 µM): 13.3
- cell painting activity score (U-2 OS [1]; 10 µM): 13.5
- cell painting activity score (U-2 OS [1]; 20 µM): 9.67
- relative cell count (U-2 OS [2]; 0.625 µM): 0.887
- relative cell count (U-2 OS [2]; 1.25 µM): 0.831
- relative cell count (U-2 OS [2]; 2.5 µM): 0.869
- relative cell count (U-2 OS [2]; 5 µM): 0.887
- relative cell count (U-2 OS [2]; 10 µM): 0.918
- relative cell count (U-2 OS [2]; 20 µM): 0.792
- AUC of culture confluence over time (U-2 OS [3]; 5 µM): 32.8
- AUC of culture confluence over time (U-2 OS [3]; 10 µM): 33.9
- AUC of culture confluence over time (U-2 OS [3]; 20 µM): 19.5

SMILES: CCOC(=O)C1=C(C)NC(=S)N[C@@H]1c1cccc(O)c1
- cell painting activity score (U-2 OS [1]; 0.625 µM): 4.88
- cell painting activity score (U-2 OS [1]; 1.25 µM): 4.81
- cell painting activity score (U-2 OS [1]; 2.5 µM): 5.49
- cell painting activity score (U-2 OS [1]; 5 µM): 5.58
- cell painting activity score (U-2 OS [1]; 10 µM): 4.56
- cell painting activity score (U-2 OS [1]; 20 µM): 4.64
- relative cell count (U-2 OS [2]; 0.625 µM): 0.936
- relative cell count (U-2 OS [2]; 1.25 µM): 0.94
- relative cell count (U-2 OS [2]; 2.5 µM): 1.01
- relative cell count (U-2 OS [2]; 5 µM): 0.941
- relative cell count (U-2 OS [2]; 10 µM): 0.954
- relative cell count (U-2 OS [2]; 20 µM): 0.999
- AUC of culture confluence over time (U-2 OS [3]; 5 µM): 48.6
- AUC of culture confluence over time (U-2 OS [3]; 10 µM): 50.3
- AUC of culture confluence over time (U-2 OS [3]; 20 µM): 44.1
